Source: ChEMBL document CHEMBL1201862, “PubChem BioAssay data set” (2004)
Active and inactive are the calls of the source.

Assays:
[1] = target: Glyceraldehyde-3-phosphate dehydrogenase (Homo sapiens, UniProt P04406)
Bcl-2-related protein A1 [2] = target: T1, Bcl-2-related protein A1 (Mus musculus, UniProt Q07440); test: Bfl-1 binding inhibitors, SAR follow-up, biochemical, fluorescence polarization (AID 1070)
T1 sequence (Q07440 whole entry): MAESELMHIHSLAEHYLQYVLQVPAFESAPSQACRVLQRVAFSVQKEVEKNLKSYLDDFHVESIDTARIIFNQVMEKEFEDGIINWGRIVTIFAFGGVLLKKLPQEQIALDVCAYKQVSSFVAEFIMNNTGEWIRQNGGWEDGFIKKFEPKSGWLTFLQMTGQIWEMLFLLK

Bcl-2-related protein A1 [3] = target: T1, Bcl-2-related protein A1; test: small-molecule antagonists of Bfl-1/BH3 interaction – biochemical, TR-FRET, mouse Bfl-1, confirmation (AID 621);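 further: TR-FRET binding of GST-Bfl-1 to FITC-labelled Bid peptide via terbium antibody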
Procathepsin L = Procathepsin L (Homo sapiens, UniProt P07711); test: CTSL1 protease inhibition – biochemical, QFRET, 1536-well, counter-screen for M1/M17 aminopeptidase inhibitor project, dose response (AID 2214)
Sequence of Procathepsin L (P07711 whole entry): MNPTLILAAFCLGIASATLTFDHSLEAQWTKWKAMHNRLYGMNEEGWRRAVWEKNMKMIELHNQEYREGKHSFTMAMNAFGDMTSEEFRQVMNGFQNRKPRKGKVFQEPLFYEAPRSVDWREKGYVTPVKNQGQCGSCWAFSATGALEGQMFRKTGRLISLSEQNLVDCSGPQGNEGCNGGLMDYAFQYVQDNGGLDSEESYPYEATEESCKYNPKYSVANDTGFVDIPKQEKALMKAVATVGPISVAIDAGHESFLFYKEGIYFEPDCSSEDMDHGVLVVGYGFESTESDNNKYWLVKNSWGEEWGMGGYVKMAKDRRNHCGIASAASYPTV

Aminopeptidase N = target: T2, Aminopeptidase N (Plasmodium falciparum FcB1/Columbia, UniProt O96935); test: malaria alanyl aminopeptidase activity blockers – biochemical, fluorogenic H-Leu-NHMec substrate, 1536-well (AID 1445); set-up: species or system Plasmodium falciparum 3D7, 3D7
T2 sequence (O96935 whole entry): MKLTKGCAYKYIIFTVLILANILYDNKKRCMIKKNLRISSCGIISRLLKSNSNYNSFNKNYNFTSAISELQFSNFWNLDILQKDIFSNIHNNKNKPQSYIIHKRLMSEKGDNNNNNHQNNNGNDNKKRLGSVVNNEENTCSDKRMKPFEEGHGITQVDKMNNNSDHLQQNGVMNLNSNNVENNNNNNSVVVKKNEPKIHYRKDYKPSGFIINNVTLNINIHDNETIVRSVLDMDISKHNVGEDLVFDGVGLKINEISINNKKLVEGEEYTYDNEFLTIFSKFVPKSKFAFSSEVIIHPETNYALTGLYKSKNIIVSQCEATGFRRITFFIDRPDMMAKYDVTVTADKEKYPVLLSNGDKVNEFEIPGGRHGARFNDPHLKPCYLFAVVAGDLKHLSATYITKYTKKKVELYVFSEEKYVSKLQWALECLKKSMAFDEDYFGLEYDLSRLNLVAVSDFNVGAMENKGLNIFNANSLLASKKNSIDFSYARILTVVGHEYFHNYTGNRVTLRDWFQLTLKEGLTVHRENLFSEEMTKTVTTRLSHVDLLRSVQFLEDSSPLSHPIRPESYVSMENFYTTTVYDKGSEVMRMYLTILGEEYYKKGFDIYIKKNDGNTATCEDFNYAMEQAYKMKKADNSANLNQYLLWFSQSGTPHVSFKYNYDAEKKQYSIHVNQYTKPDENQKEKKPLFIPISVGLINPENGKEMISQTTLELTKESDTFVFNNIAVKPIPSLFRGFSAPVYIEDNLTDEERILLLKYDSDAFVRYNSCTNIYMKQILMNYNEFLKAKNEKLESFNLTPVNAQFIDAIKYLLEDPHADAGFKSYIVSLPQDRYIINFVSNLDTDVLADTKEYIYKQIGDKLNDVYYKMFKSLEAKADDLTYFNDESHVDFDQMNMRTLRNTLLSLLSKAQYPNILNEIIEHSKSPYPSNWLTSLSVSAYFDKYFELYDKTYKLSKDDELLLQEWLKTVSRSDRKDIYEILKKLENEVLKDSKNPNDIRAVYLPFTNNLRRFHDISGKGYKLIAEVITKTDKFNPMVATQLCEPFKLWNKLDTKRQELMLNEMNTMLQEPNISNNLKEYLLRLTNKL

Aspartyl aminopeptidase = Aspartyl aminopeptidase (Plasmodium falciparum 3D7, UniProt Q8I2J3); test: Counterscreen for inhibitors of M1 and M17 aminopeptidases: QFRET-based biochemical high throughput dose response assay for inhibitors of the Plasmodium falciparum M18 Aspartyl Aminopeptidase (PFM18AAP). [Related PubChem assays: 1619 (Screening assay (M17LAP inhibitors).), 1445 (Screening assay (M1AAP inhibitors).)]
Sequence of Aspartyl aminopeptidase (Q8I2J3 whole entry): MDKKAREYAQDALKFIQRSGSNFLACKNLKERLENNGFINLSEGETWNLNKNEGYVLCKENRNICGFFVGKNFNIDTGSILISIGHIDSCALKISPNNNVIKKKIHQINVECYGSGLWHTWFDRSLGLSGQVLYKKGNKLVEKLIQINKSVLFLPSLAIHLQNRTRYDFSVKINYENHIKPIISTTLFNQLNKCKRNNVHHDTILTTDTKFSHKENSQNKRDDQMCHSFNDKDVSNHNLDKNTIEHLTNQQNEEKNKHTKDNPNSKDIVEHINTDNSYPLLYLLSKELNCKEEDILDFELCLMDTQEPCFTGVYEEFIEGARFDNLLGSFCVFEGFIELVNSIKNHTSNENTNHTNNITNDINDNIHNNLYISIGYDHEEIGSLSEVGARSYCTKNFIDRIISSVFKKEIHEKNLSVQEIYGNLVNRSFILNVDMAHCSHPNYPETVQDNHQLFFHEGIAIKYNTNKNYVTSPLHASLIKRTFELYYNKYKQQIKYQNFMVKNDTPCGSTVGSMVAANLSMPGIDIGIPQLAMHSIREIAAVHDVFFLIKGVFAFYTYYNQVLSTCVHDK

[4] = Luminescence Cell-Based Dose Response HTS to Identify Activators of Luciferase Translation or Activity in H4 […] Cells. [Related pubchem assays: 1829 (Project Summary), 1814 (Primary HTS)]; type: functional
H4 = test: Luminescence Cell-Based Dose Response HTS to Identify Activators of 5'UTR Stem-Loop Driven Prion Protein mRNA Translation in H4 Neuroglioblastoma Cells. [Related pubchem assays: 1829 (Project Summary), 1814 (Primary HTS)]; type: functional; settings: Homo sapiens
[5] = Luminescence Cell-Based Dose Confirmation HTS to Identify Activators of 5'UTR Stem-Loop Driven Alpha-Synuclein mRNA Translation in H4 Neuroglioblastoma Cells. [Related pubchem assays: 1829 (Project Summary), 1814 (Primary HTS)]; type: functional
[6] = Luminescence Cell-Based Dose Response to Identify Activators of 5'UTR Stem-Loop Driven Prion Protein mRNA Translation in H4-C Neuroglioblastoma Cells. [Related pubchem assays: 1829 (Project Summary), 1814 (Primary HTS)]; type: functional
HeLa = test: ATP-based viability loss in HeLa cells – cell-based, CellTiter-Glo luminescence, cherry-pick samples, cytotoxicity control for MITF activator project, dose response (AID 540259); type: functional; settings: Homo sapiens
[7] = Luminescence Cell-Based Dose Response to Identify Activators of Luciferase Translation or Activity in H4-C Neuroglioblastoma Cells. [Related pubchem assays: 1829 (Project Summary), 1814 (Primary HTS)]; type: functional
[8] = Luminescence Cell-Based Dose Confirmation to Identify Activators of 5'UTR Stem-Loop Driven Alpha-Synuclein mRNA Translation in H4 Neuroglioblastoma Cells. [Related pubchem assays: 1829 (Project Summary), 1814 (Primary HTS)]; type: functional
[9] = HIV-1 AD8 envelope cell-cell fusion blockers – cherry-pick, dose response (AID 652062); type: functional, cell-based;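 further: luciferase signal from cell-cell fusion driven by HIV-1 clade B AD8 Env; potency is for inhibitors of fusion seen as a drop in luminescence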
[10] = blockers of HIV-1 ZM109 envelope-driven cell-cell fusion – HeLa effector, CEM target cells, luciferase, cherry-pick, dose response (AID 652058); type: functional, cell-based;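 further: luciferase signal from HIV-1 Env mediated cell-cell fusion of effector and target cells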
[11] = blockers of HIV-1 envelope-mediated cell-cell fusion – cherry-pick, dose response (AID 652057); type: functional, cell-based
[12] = Trypanosoma cruzi growth suppression in host cells – NIH3T3 host cells, beta-gal luminescence, confirmation (AID 2044); type: functional, cell-based;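 further: intracellular parasites grown in NIH/3T3 mouse fibroblasts as host cells; luminescent beta-galactosidase reporter signal from transgenic T. cruzi replicating inside host cells; inhibitors lower the luminescence signal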
cells [13] = test: cells
Galanin receptor type 3 = Galanin receptor type 3 (Homo sapiens, UniProt O60755); test: Fluorescence-based cell-based primary high throughput dose response assay to identify antagonists of the Galanin Receptor 3 (GalR3).; type: functional
Sequence of Galanin receptor type 3 (O60755 whole entry): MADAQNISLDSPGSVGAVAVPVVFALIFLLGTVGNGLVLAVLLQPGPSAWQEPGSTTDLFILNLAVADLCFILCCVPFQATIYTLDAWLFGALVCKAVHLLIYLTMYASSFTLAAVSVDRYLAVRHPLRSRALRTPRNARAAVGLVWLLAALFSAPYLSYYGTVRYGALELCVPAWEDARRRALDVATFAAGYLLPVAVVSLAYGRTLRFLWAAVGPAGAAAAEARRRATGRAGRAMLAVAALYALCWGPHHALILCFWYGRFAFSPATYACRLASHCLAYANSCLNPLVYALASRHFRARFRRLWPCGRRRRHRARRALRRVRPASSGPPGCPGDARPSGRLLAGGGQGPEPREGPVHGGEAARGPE

[14] = alpha-synuclein stem-loop luciferase translation blockers – H4 neuroglioma cells, luminescence, confirmation (AID 1988); type: functional, cell-based
[15] = viability loss in CEM21 cells – cell-based, CellTiter-Glo luminescence, cherry-picked, cytotoxicity control for viral fusion inhibitor project, dose response (AID 652042); type: functional;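 further: potency for signal decrease meaning cytotoxicity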
[16] = NIH3T3 cell viability loss – ATP luminescence, mouse fibroblasts, counter-screen, dose response (AID 2010); type: functional, cell-based;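 further: cells exposed to compound for about 90 hours before reading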
[17] = target: T3, Neuropeptide Y receptor type 1 (Homo sapiens, UniProt P25929); test: IC50 of human NPY-Y1 blockers – cell-based, dose response (AID 1277); type: functional
T3 sequence (P25929 whole entry): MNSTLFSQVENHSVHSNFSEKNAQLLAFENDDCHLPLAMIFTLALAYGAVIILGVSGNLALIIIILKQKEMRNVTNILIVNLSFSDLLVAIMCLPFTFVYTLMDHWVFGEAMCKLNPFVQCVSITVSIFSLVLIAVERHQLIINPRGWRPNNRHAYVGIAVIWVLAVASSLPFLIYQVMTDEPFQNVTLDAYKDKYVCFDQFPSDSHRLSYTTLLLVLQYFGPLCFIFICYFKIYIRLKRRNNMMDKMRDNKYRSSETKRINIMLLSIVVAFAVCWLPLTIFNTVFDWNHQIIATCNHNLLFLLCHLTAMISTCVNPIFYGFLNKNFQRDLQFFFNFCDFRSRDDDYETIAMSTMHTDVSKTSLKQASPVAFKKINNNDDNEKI

cells [18] = type: functional, cell-based; settings: HEK-CNG
Jurkat = test: blockers of NF-kB activation in T cells – Jurkat, luciferase reporter, luminescence, B- and T-cell, dose response (AID 489004); type: functional, cell-based; settings: Homo sapiens;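 further: NF-kB luciferase reporter Jurkat cells stimulated with PMA plus ionomycin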
INS1 = test: INS-1E survival protection against cytokine death – cell-based, luminescence, retest, dose response (AID 449756); type: functional; settings: Rattus norvegicus;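 further: cell death triggered by IL-1 beta plus TNF-alpha plus IFN-gamma mixture; protective hits raise ATP signal compared with cytokine alone wells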
[19] = Luminescence Cell-Based Dose Response HTS to Identify Inhibitors of 5'UTR Stem-Loop Driven Prion Protein mRNA Translation in H4 Neuroglioblastoma Cells. [Related pubchem assays: 1827 (Project Summary), 1813 (Primary HTS)]; type: functional
[20] = target: T4, Neuropeptide Y receptor type 2 (Homo sapiens, UniProt P49146); test: IC50 for human NPY-Y2 blockade – cell-based, counter-screen for NPY-Y1 antagonist project, dose response (AID 1278); type: functional
T4 sequence (P49146 whole entry): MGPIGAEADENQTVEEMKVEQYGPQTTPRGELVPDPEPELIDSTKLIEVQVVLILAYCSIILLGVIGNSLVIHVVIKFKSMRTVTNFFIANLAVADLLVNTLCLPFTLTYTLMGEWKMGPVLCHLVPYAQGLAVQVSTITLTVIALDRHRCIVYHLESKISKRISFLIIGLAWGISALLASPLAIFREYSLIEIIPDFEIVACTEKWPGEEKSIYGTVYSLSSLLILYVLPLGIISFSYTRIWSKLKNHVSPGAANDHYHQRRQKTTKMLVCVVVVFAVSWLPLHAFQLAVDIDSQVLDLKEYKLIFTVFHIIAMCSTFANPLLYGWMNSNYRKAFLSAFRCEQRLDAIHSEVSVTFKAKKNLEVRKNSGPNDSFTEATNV

[21] = target: T5, COUP transcription factor 2 (Homo sapiens, UniProt P24468); test: Luminescence-based cell-based high throughput dose response assay to identify inhibitors of COUP-TFII (NR2F2).; type: functional;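 further: HEK293 cells transiently cotransfected with COUP-TFII expression vector and reporter; luciferase reporter luminescence driven by COUP-TFII from the pX2-168 reporter plasmid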
T5 sequence (P24468 whole entry): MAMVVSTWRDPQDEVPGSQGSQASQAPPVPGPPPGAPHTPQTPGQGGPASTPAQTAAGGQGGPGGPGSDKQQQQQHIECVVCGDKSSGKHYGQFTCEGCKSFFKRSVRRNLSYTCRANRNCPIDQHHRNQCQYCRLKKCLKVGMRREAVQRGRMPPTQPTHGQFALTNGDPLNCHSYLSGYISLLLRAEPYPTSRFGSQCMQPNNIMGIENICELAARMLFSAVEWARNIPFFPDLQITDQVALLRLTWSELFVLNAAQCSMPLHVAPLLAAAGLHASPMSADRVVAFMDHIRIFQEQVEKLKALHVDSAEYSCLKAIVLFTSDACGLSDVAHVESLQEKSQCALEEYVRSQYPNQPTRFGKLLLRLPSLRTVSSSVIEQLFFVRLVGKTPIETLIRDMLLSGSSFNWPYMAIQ

[22] = luciferase reporter signal suppression in cells – H4 neuroglioma cells, luminescence, dose response (AID 1990); type: functional, cell-based
[23] = HEK-293T viability loss, compound-treated – cell-based, uHTS hits, cytotoxicity control for B/T-cell NF-kB inhibitor project, dose response (AID 489019); type: functional;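 further: IC50 reflects cytotoxicity as loss of cell viability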
[24] = off-target signal loss in HeLa-CEM21 co-culture – HeLa F-luc CTL cells, cherry-picked, counter-screen for HIV-1 Env fusion inhibitor project, dose response (AID 652040); type: functional, cell-based;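 further: potency for signal decrease marking cytotoxic or nonspecific inhibition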

Sequence of Glyceraldehyde-3-phosphate dehydrogenase (P04406 whole entry): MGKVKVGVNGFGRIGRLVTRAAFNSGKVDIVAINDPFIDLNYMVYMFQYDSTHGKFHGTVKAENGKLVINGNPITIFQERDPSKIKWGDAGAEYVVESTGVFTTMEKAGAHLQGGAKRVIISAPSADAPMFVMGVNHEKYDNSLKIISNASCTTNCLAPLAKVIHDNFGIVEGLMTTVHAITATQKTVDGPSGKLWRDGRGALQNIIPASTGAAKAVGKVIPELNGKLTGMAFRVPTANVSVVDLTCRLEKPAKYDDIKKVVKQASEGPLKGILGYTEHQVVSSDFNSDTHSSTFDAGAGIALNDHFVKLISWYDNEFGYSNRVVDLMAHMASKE

In the case of `Cc1ccc(Cl)c(N2C(=O)C(Cl)=C(Cl)C2=O)c1Cl`, the IC50 [1] is reported as > 100 µM (not active), the IC50 (Bcl-2-related protein A1 [2]) is reported as > 100 µM (not active) and the IC50 (Bcl-2-related protein A1 [3]) is reported as 20.1 µM (active).
For `COc1ccc(C2CC(c3c(-c4ccccc4)c4cc(Cl)ccc4[nH]c3=O)=NN2C(=O)CCC(=O)O)cc1` (configuration not stated), the IC50 (Procathepsin L) was > 59.6 µM (not active), the IC50 (Aminopeptidase N) was 4.93 µM (active) and the IC50 (Aspartyl aminopeptidase) was > 73.5 µM (not active).
In the case of `COc1cccc(/C(C)=N/N=C(\C)c2cccc(OC)c2)c1`, the EC50 [4] is reported as 0.488 µM (active), the EC50 (H4) is reported as 38.7 µM (active) and the EC50 [5] is reported as < 0.1 µM (active). For the same compound, the EC50 [6] was 1.47 µM (active), the AC50 (HeLa) was 64.5 µM (active) and the EC50 [7] was 0.36 µM (active). The EC50 [8] was 0.419 µM (active).
For `CCCCCCn1c2c(c(=N)c3c1CCC3)CCC2`, the AC50 [9] was 3.19 µM (active), the AC50 [10] was 0.949 µM (active) and the AC50 [11] was 6.91 µM (active). The EC50 [12] was < 0.1 µM (active), the EC50 (cells [13]) was 0.007 µM (active) and the IC50 (Galanin receptor type 3) was 8.41 µM (active). The EC50 [14] was 6.52 µM (active), the AC50 [15] was 3.33 µM (active) and the EC50 [16] was > 60 µM (not active). For the same compound, the IC50 [17] was 8.75 µM (active), the EC50 (cells [18]) was > 29.9 µM (inactive) and the IC50 (Jurkat) was 7.15 µM (active). The AC50 (INS1) was 2.04 µM (active), the EC50 [19] was 14.3 µM (active) and the IC50 [20] was 14.6 µM (not active). The IC50 [21] was 3.52 µM (active), the EC50 [22] was 8.02 µM (active) and the IC50 [23] was > 80 µM (inactive). The AC50 [24] was > 70 µM (inactive).
